Source: US20250195521A1 (Revolution Medicines, Inc., priority 2020, published 2025)
Values joined by “and” are separate entries in the source; they are usually repeats but may differ in a detail not shown here. Identical values can stand only once.

How the values were obtained:
[1] = target: KRAS G12C (Homo sapiens (Human), UniProt P01116+P62937, G12C); test: Ras-Raf disruption/FRET/MOA assay (BRAF RBD, Cyclophilin A); type: biochemical; details: read-out: KRAS G12C FRET IC50
Outline: (§1)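 Measured: compound-facilitated Cyclophilin A:Ras complex blocking RAF RBD binding. Conditions: 12.5 nM Ras-GMPPNP, 50 nM BRAF RBD, 25 μM CypA, 3 h plus 1.5 h detection. Output: IC50 from TR-FRET ratio.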

[2] = target: KRAS G12D (Homo sapiens (Human), UniProt P01116+P62937, G12D); test: as above; type: biochemical; details: read-out: KRAS G12D FRET IC50
Outline: as §1

[3] = target: KRAS G13D (Homo sapiens (Human), UniProt P01116+P62937, G13D); test: as above; type: biochemical; details: read-out: KRAS G13D FRET data IC50
Outline: as §1

[4] = target: NRAS WT (Homo sapiens (Human), UniProt P01111+P62937); test: as above; type: biochemical
Outline: (§2)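 First, 25 μM Cyclophilin A, 12.5 nM His6-Ras-GMPPNP and 50 nM GST-BRAF RBD are mixed with diluted compound at pH 7.3. Next, 3 h at 25° C. Then 10 nM anti-His Eu-W1024 plus 50 nM anti-GST allophycocyanin for 1.5 h before TR-FRET reading.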

[5] = target: KRAS Q61H (Homo sapiens (Human), UniProt P01116+P62937, Q61H); test: as above; type: biochemical
Outline: as §1

[6] = target: KRAS G12V (Homo sapiens (Human), UniProt P01116+P62937, G12V); test: as above; type: biochemical; details: read-out: KRAS G12V FRET IC50
Outline: as §1

[7] = target: NRAS Q61R (Homo sapiens (Human), UniProt P01111+P62937, Q61R); test: as above; type: biochemical
Outline: as §2

[8] = target: KRAS G13C (Homo sapiens (Human), UniProt P01116+P62937, G13C); test: as above; type: biochemical; details: read-out: KRAS G13C FRET IC50
Outline: as §1

[9] = target: KRAS G12S (Homo sapiens (Human), UniProt P01116+P62937, G12S); test: as above; type: biochemical; details: read-out: KRAS G12S FRET IC50
Outline: as §1

[10] = target: KRAS WT (Homo sapiens (Human), UniProt P01116+P62937); test: as above; type: biochemical; details: read-out: KRAS WT FRET data IC50
Outline: as §1

[11] = target: NRAS Q61K (Homo sapiens (Human), UniProt P01111+P62937, Q61K); test: as above; type: biochemical
Outline: as §2

[12] = target: NRAS G12C (Homo sapiens (Human), UniProt P01111+P62937, G12C); test: as above; type: biochemical; details: read-out: NRAS G12C FRET data IC50
Outline: as §2

[13] = target: K-Ras G12C(GMP-PNP) binding to BRAF RBD (Homo sapiens (Human), UniProt P01116+P62937, G12C); test: Disruption of BRAF RBD interaction with K-Ras (FRET / MOA assay), K-Ras G12C; type: biochemical; details: read-out: KRAS G12C FRET IC50
Outline: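 First, test compounds in a 10-point 3-fold series (30 μM final top) were incubated for 3 hours at 25° C with nucleotide-loaded Ras, cyclophilin A and a BRAF RBD construct. Next, Eu anti-His and allophycocyanin anti-GST detection reagents were added for 1.5 hours. Finally, IC50s were derived from loss of TR-FRET signal against DMSO.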

[14] = system: NCI-H358 (K-Ras G12C); test: CellTiter-Glo cell viability assay, NCI-H358; type: cell-based, human; details: Homo sapiens, NCI-H358, 120 h, 5-day treatment; read-out: H358 Cell Viability assay data (K-Ras G12C, IC50)
Outline: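 Cells seeded, compound added directly to plates; day 5: plates to RT ~30 min, CellTiter-Glo luminescence; (sample/avg DMSO)*100; 4-parameter fit.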

[15] = system: Capan-1 cells (K-Ras G12V); test: CellTiter-Glo cell viability, Capan-1; type: cell-based, human; details: Homo sapiens, CAPAN-1, 120 h, K-Ras G12V, 5-day treatment; read-out: Capan-1 Cell Viability IC50
Outline: (§3)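 Cells seeded, compound dispensed straight into wells, 5-day exposure. Plates brought to room temperature ~30 min, CellTiter-Glo luminescence measured. Normalized to DMSO (%), 4-parameter logistic fit.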

[16] = system: NCI-H358 cells (K-Ras G12C); test: CellTiter-Glo cell viability, NCI-H358; type: cell-based, human; details: Homo sapiens, NCI-H358, 120 h, K-Ras G12C, 5-day treatment; read-out: H358 Cell Viability IC50
Outline: as §3

Sequence of KRAS G12C (P01116-2 other isoform, or with tags, fused parts or gaps G12C): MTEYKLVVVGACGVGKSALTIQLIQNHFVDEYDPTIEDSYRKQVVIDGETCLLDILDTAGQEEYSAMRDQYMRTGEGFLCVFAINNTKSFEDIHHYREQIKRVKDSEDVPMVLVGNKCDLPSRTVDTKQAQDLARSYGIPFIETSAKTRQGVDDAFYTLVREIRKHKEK
Sequence of KRAS G12C (P62937 whole entry): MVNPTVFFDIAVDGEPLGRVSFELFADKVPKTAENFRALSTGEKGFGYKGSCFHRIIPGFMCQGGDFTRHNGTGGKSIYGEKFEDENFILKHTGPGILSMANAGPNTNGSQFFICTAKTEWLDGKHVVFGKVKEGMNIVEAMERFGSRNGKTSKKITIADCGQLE
Sequence of NRAS G12C (P01111 whole entry G12C): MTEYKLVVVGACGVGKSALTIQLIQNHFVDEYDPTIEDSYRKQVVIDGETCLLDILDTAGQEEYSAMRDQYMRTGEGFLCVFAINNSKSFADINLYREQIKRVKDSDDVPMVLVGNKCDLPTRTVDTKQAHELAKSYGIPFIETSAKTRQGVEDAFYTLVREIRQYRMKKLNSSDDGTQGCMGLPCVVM
Sequence of NRAS G12C (P62937 whole entry): as the sequence (P62937 whole entry) above
Sequence of K-Ras G12C(GMP-PNP) binding to BRAF RBD (P01116 other isoform, or with tags, fused parts or gaps G12C): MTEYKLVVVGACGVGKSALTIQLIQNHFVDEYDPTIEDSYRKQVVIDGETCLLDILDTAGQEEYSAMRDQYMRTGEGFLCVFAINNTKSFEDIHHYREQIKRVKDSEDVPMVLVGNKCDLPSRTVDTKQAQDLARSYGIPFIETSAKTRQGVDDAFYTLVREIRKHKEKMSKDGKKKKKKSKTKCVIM
Sequence of K-Ras G12C(GMP-PNP) binding to BRAF RBD (P62937 whole entry): as the sequence (P62937 whole entry) above
Sequence of KRAS G12D (P01116 other isoform, or with tags, fused parts or gaps G12D): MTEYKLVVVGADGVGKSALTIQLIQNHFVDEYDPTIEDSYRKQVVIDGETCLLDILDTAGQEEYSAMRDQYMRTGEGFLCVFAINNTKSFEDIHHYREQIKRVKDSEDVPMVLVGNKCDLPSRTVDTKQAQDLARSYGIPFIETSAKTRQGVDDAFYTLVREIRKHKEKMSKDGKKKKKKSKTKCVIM
Sequence of KRAS G12D (P62937 whole entry): as the sequence (P62937 whole entry) above
Sequence of NRAS Q61K (P01111 whole entry Q61K): as the sequence (P01111 whole entry G12C) above, with C12G, Q61K counted along it
Sequence of NRAS Q61K (P62937 whole entry): as the sequence (P62937 whole entry) above
Sequence of KRAS G13D (P01116 other isoform, or with tags, fused parts or gaps G13D): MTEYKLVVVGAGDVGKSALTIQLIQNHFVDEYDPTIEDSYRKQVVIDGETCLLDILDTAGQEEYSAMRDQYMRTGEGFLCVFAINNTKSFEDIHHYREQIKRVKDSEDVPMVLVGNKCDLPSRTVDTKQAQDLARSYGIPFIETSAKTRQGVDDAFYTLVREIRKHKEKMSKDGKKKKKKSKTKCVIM
Sequence of KRAS G13D (P62937 whole entry): as the sequence (P62937 whole entry) above
Sequence of KRAS WT (P01116 other isoform, or with tags, fused parts or gaps): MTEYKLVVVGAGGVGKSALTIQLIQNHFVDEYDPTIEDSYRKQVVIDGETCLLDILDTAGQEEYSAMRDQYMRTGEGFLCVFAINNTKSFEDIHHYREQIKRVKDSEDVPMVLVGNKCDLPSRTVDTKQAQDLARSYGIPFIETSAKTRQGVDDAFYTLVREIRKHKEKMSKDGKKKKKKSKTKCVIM
Sequence of KRAS WT (P62937 whole entry): as the sequence (P62937 whole entry) above
Sequence of NRAS WT (P01111 whole entry): as the sequence (P01111 whole entry G12C) above, with C12G counted along it
Sequence of NRAS WT (P62937 whole entry): as the sequence (P62937 whole entry) above
Sequence of KRAS G12S (P01116 other isoform, or with tags, fused parts or gaps G12S): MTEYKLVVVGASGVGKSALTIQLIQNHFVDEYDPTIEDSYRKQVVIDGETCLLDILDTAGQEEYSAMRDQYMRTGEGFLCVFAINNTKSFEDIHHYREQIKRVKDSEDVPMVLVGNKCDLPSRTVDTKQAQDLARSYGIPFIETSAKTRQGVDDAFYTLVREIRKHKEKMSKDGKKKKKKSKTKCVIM
Sequence of KRAS G12S (P62937 whole entry): as the sequence (P62937 whole entry) above
Sequence of KRAS Q61H (P01116 other isoform, or with tags, fused parts or gaps Q61H): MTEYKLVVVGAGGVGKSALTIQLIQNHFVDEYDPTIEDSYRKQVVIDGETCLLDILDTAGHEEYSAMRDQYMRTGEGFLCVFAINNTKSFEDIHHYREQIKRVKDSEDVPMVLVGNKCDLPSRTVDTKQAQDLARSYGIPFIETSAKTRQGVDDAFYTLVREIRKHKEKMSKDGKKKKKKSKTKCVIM
Sequence of KRAS Q61H (P62937 whole entry): as the sequence (P62937 whole entry) above
Sequence of NRAS Q61R (P01111 whole entry Q61R): as the sequence (P01111 whole entry G12C) above, with C12G, Q61R counted along it
Sequence of NRAS Q61R (P62937 whole entry): as the sequence (P62937 whole entry) above
Sequence of KRAS G13C (P01116 other isoform, or with tags, fused parts or gaps G13C): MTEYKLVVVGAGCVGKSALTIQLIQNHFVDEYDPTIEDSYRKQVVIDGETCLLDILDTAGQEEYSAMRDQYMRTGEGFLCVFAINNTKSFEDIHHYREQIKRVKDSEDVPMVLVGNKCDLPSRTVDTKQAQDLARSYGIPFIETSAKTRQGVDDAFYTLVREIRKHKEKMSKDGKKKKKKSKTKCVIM
Sequence of KRAS G13C (P62937 whole entry): as the sequence (P62937 whole entry) above
Sequence of KRAS G12V (P01116 other isoform, or with tags, fused parts or gaps G12V): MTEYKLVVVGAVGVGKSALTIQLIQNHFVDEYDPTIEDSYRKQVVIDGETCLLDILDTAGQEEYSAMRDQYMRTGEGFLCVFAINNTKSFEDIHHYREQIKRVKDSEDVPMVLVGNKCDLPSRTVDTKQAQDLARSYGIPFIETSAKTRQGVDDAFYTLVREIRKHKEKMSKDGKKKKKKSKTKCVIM
Sequence of KRAS G12V (P62937 whole entry): as the sequence (P62937 whole entry) above

Structure (SMILES)	IC50 [1]	IC50 [2]	IC50 [3]	IC50 [4] [nM]	IC50 [5] [nM]	IC50 [6]	IC50 [7] [nM]	IC50 [8] [nM]	IC50 [9]	IC50 [10]	IC50 [11] [nM]	IC50 [12]	IC50 [13] [nM]	IC50 [14] [nM]	IC50 [15] [nM]	IC50 [16] [µM]
CCn1c(-c2cccnc2[C@H](C)OC)c2c3cc(ccc31)-c1cc(O)cc(c1)C[C@H](NC(=O)C(C)C1CCOCC1)C(=O)N1CCC[C@H](N1)C(=O)OCC(C)(C)C2 (stereo partly drawn) [Compound A236]	100 to 1000 nM and 1000 to 10000 nM	1000 to 10000 nM and > 10000 nM	100 to 1000 nM and 1000 to 10000 nM	100 to 1000	10 to 100	100 to 1000 nM and 1000 to 10000 nM	1000 to 10000	100 to 1000	100 to 1000 nM and 1000 to 10000 nM	100 to 1000 nM and 1000 to 10000 nM	100 to 1000	100 to 1000 nM and 1000 to 10000 nM	> 10000	> 10000	–	–
CCn1c(-c2cccnc2[C@H](C)OC)c2c3cc(ccc31)-c1csc(n1)C[C@H](NC(=O)[C@H](C(C)C)N(C)C(=O)N1CCC1C(=O)O)C(=O)N1CCC[C@H](N1)C(=O)OCC(C)(C)C2 (stereo partly drawn) [Compound A271]	1000 to 10000 nM	> 10000 nM	> 10000 nM	1000 to 10000	100 to 1000	1000 to 10000 nM	1000 to 10000	1000 to 10000	1000 to 10000 nM	1000 to 10000 nM	100 to 1000	1000 to 10000 nM	> 10000	> 10000	> 10000	–
CCn1c(-c2cccnc2[C@H](C)OC)c2c3cc(ccc31)-c1csc(n1)C[C@H](NC(=O)[C@@H]1CCO1)C(=O)N1CCC[C@H](N1)C(=O)OCC(C)(C)C2 [Compound A359]	100 to 1000 nM	1000 to 10000 nM	1000 to 10000 nM	100 to 1000	100 to 1000	100 to 1000 nM	1000 to 10000	100 to 1000	1000 to 10000 nM	1000 to 10000 nM	100 to 1000	100 to 1000 nM	10 to 100	10 to 100	1000 to 10000	1 to 10
CCn1c(-c2cccnc2[C@H](C)OC)c2c3cc(ccc31)-c1csc(n1)C[C@H](NC(=O)[C@H](C(C)C)N(C)C(=O)N1CC[C@@]13CCCN(C)C3)C(=O)N1CCC[C@H](N1)C(=O)OCC(C)(C)C2 [Compound A468]	100 to 1000 nM	100 to 1000 nM	100 to 1000 nM	100 to 1000	10 to 100	1000 to 10000 nM	100 to 1000	100 to 1000	100 to 1000 nM	100 to 1000 nM	100 to 1000	100 to 1000 nM	100 to 1000	10 to 100	100 to 1000	–
CCn1c(-c2cccnc2[C@H](C)OC)c2c3cc(ccc31)-c1csc(n1)C[C@H](NC(=O)[C@H](C(C)C)N(C)C(=O)N(C)C[C@H]1CCN1C)C(=O)N1CCC[C@H](N1)C(=O)OCC(C)(C)C2 [Compound A469]	100 to 1000 nM	100 to 1000 nM	100 to 1000 nM	100 to 1000	100 to 1000	1000 to 10000 nM	1000 to 10000	100 to 1000	100 to 1000 nM	100 to 1000 nM	100 to 1000	100 to 1000 nM	100 to 1000	100 to 1000	100 to 1000	–
